Patent publication US8841077B2, “Biomarkers for amyotrophic lateral sclerosis and methods using the same” (Massachusetts General Hospital, priority 2006, dated 2014)

What was measured:
[1] = Metabolomics demographic study of plasma from 270 healthy volunteers of various ages (Table 11); format: in vivo, human; settings: normal adults
[2] = Caffeine and paraxanthine in plasma of ALS patients vs peripheral neuropathy or myopathy patients (Examples 6, 7; Tables 12, 13); format: in vivo, human
Method: All research participants provided informed consent. A board-certified neurologist reviewed and confirmed diagnosis for all participants. Data on gender, age, weight, and medications was collected. For participants with ALS, date and site of symptom onset, date of diagnosis, and family history of ALS was recorded.

[3] = Caffeine and caffeine metabolites in plasma of ALS patients vs healthy control subjects (Examples 4, 5; Tables 9, 10)
Method: Metabolomic analysis of two independent ALS studies was carried out to assess the changes of metabolite levels in plasma from ALS patients relative to healthy control subjects. Thirty-one healthy control volunteers and 31 participants with ALS enrolled in Study 1. Study 2 was comprised of ninety-nine participants with ALS and 94 healthy volunteers. All research participants provided informed consent. A board-certified neurologist reviewed and confirmed diagnosis for all participants. Data on gender, age, weight, and medications was collected. For participants with ALS, date and site of symptom onset, date of diagnosis, and family history of ALS was recorded. Healthy control subjects were defined by the absence of a known neurological disorder.
A measure of caffeine clearance rate is reflected in the ratio of caffeine metabolites to caffeine.

| Paraxanthine/Caffeine (P/C) Ratio ([1]; age 25-35) | Paraxanthine/Caffeine (P/C) Ratio ([1]; age 36-50) | Paraxanthine/Caffeine (P/C) Ratio ([1]; age 51-65) | Paraxanthine/Caffeine Ratio ([2]; ALS) | Paraxanthine/Caffeine Ratio ([2]; Myopathy) | Paraxanthine/Caffeine Ratio ([2]; PN) | Theophylline/Caffeine (T/C) Ratio ([3]; ALS subjects) | Theophylline/Caffeine (T/C) Ratio ([3]; Control subjects) | Structure (SMILES) |
| --- | --- | --- | --- | --- | --- | --- | --- | --- |
| 1.1467 | 1.0358 | 0.7105 | 0.7389 | 0.4900 | 0.0294 | – | – | Cn1c(=O)[nH]c2ncn(C)c2c1=O [Paraxanthine, 1-7-dimethylxanthine] |
| – | – | – | – | – | – | 1.3684 | 0.8857 | Cn1c(=O)c2[nH]cnc2n(C)c1=O [Theophylline] |
